Assay results from patent US11725004B2, “(Cyano-dimethyl-methyl)-isoxazoles and -[1,3,4]thiadiazoles” (Centrexion Therapeutics Corporation, priority 2013, dated 2023).

Target: human CB1R (Homo sapiens (Human), UniProt P21554)
Experiment: CB1 cAMP (Assay 2): in vitro testing of CB1 potency
Assay type: cell-based
Settings: CHO cells expressing human CB1R; inhibition of forskolin-stimulated cAMP

Chain of human CB1R (P21554 whole entry): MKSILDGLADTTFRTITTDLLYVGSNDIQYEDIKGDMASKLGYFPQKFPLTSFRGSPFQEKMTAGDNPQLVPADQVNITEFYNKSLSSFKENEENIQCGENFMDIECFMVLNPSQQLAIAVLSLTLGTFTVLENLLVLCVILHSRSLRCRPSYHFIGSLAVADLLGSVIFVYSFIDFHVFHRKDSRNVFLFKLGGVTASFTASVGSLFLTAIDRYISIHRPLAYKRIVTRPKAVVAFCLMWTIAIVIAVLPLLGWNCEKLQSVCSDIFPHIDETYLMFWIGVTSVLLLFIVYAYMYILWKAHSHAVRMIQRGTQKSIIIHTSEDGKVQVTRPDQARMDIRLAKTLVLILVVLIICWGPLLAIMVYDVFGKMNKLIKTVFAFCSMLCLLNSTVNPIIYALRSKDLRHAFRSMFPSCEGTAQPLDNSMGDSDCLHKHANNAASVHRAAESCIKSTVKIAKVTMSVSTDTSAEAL

Going from `CN(C1CCN(S(C)(=O)=O)CC1)C(C)(C)C(=O)Nc1nnc(C(C)(C)C#N)s1` [Example 8] to `CN(C1CCN(S(C)(=O)=O)CC1)C(C)(C)C(=O)Nc1cc(C(C)(C)C#N)no1` [Example 5], the IC50 falls from 69 µM to 2.5 µM (28-fold). The second is the more potent here.

First: CN(C1CCN(S(C)(=O)=O)CC1)C(C)(C)C(=O)Nc1cc(C(C)(C)CO)no1 [Example 47 in WO2010147792]
Second: CC(C)(CO)c1cc(NC(=O)C(C)(C)S(=O)(=O)C2CCOCC2)on1 [Example 2 in WO2010036630]
The IC50 of the first is 48-fold lower: 3.1 µM for the first, 150 µM for the second.

`CC(C)(O)c1cc(NC(=O)C(C)(C)S(=O)(=O)C2CCOCC2)on1` [Example 133 WO2010036630] and `CC(C)(C#N)c1cc(NC(=O)C(C)(C)S(=O)(=O)C2CCOCC2)on1` [Example 3] cannot be ordered by IC50: over 200 µM for the first, over 200 µM for the second.

First: COCC(C)(C)c1cc(NC(=O)C(C)(C)S(=O)(=O)C2CCOCC2)on1 [Example 38 in WO2010036630]
Second: COCC(C)(C)c1cc(NC(=O)C(C)(C)S(=O)(=O)CC2CCOCC2)on1 [Example 17 in WO2010036630]
The IC50 of the first is 5.8-fold higher: 50 µM for the first, 8.6 µM for the second.

Going from `CC(C)(C#N)c1cc(NC(=O)C(C)(C)S(=O)(=O)CCCC(F)(F)F)on1` [Example 1, N-[3-(Cyano-dimethyl-methyl)-isoxazol-5-yl]-2-methyl-2-(4,4,4-trifluoro-butane-1-sulfonyl)-propionamide] to `CC(C)(O)c1cc(NC(=O)C(C)(C)S(=O)(=O)CCCC(F)(F)F)on1` [Example 134 in WO2010036630], the IC50 falls from 104 µM to 26 µM (4-fold). The second is the more potent here.

Going from `CN(CC1CCOCC1)C(C)(C)C(=O)Nc1cc(C(C)(C)CO)no1` [Example 7 in WO2010147792] to `COCC(C)(C)c1cc(NC(=O)C(C)(C)N(C)CC2CCOCC2)on1` [Example 46 in WO2010147792], the IC50 falls from 8.08 µM to 0.923 µM (8.8-fold).

Going from `CN(CC1CCOCC1)C(C)(C)C(=O)Nc1nnc(C(C)(C)C#N)s1` [Example 7, N-[5-(Cyano-dimethyl-methyl)-[1,3,4]thiadiazol-2-yl]-2-methyl-2-[methyl-(tetrahydro-pyran-4-ylmethyl)-amino]-propionamide] to `CN(CC1CCOCC1)C(C)(C)C(=O)Nc1nnc(C(C)(C)CO)s1` [Example 30 in WO2010147792], the IC50 falls from over 200 µM to 120 µM. The second is the more potent here.

`CC(C)(CO)c1cc(NC(=O)C(C)(C)S(=O)(=O)CC2CCOCC2)on1` [Example 1 in WO2010036630] and `CC(C)(C#N)c1cc(NC(=O)C(C)(C)S(=O)(=O)CC2CCOCC2)on1` [Example 2, N-[3-(Cyano-dimethyl-methyl)-isoxazol-5-yl]-2-methyl-2-(tetrahydro-pyran-4-ylmethanesulfonyl)-propionamide] cannot be ordered by IC50: over 50 µM for the first, over 200 µM for the second.

`CC(C)(CO)c1cc(NC(=O)C(C)(C)S(=O)(=O)CCCC(F)(F)F)on1` [Example 7 in WO2010036630] and `CN(CC1CCOCC1)C(C)(C)C(=O)Nc1cc(C(C)(C)C#N)no1` [Example 4] are within 1.5-fold of each other in IC50: 28 µM for the first, 39.4 µM for the second.
